# Experimental data reported in US7670997B2, “Ophthalmic compositions comprising a branched, glycerol monoalkyl compound and a fatty acid monoester” (Bausch & Lomb Incorporated, priority 2006, dated 2010).
# Where two headings read alike, the source gives them in different places.
# Key:
# [1] = for Foam Height Time = 0 min: after 10 seconds of vigorous shaking; for Foam Height Time = 30 min: after 30 minutes of standing
# Description: In such a test, 50 mL of the solution being tested is placed in a 100 mL graduated cylinder (2.6 cm in diameter). The foam height is measured after 10 seconds of vigorous shaking of the cylinder containing the test solution. Foam height after 30 minutes of standing is also measured to evaluate foam draining propensity of the test solutions.
# [2] = test system: Gram-positive bacteria associated with perspiration odor; details: Sensiva product literature, Schulke & Mayr; cited from earlier work
# [3] = octoxyglycerin 0.05 ppm in Table 1 formulation
# [4] = octoxyglycerin 0.10 ppm in Table 1 formulation
# [5] = octoxyglycerin 0.25 ppm in Table 1 formulation
# [6] = octoxyglycerin 0.50 ppm in Table 1 formulation
# [7] = octoxyglycerin 0.75 ppm in Table 1 formulation
# [8] = octoxyglycerin 1.00 ppm in Table 1 formulation
# [9] = octoxyglycerin 2.00 ppm in Table 1 formulation
compound,measurement,setting,value
"CCCCC(CC)COCC(O)CO (stereo not shown) [octoxyglycerin, 3-[(2-ethylhexyl)oxy]-1,2-propanediol]",control of foaming,"[1]; amounts over 0.05 ppm, multi-purpose lens care products with over 3.0 wt % foaming surfactants (Pluronic F127, Tetronic 1107)",effective control of foaming
same,Foam Height Time = 0 min,[1]; [3],3.8 ± 0.2 cm
same,Foam Height Time = 30 min,[1]; [3],3.0 ± 0.3 cm
same,Foam Height Time = 0 min,[1]; [4],2.6 ± 0.4 cm
same,Foam Height Time = 30 min,[1]; [4],2.0 ± 0.2 cm
same,Foam Height Time = 0 min,[1]; [5],1.3 ± 0.2 cm
same,Foam Height Time = 30 min,[1]; [5],0.8 ± 0.2 cm
same,Foam Height Time = 0 min,[1]; [6],0.7 ± 0.2 cm
same,Foam Height Time = 30 min,[1]; [6],0.4 ± 0.1 cm
same,Foam Height Time = 0 min,[1]; [7],0.3 ± 0.1 cm
same,Foam Height Time = 30 min,[1]; [7],0.2 ± 0.1 cm
same,Foam Height Time = 0 min,[1]; [8],0.1 ± 0.0 cm
same,Foam Height Time = 30 min,[1]; [8],0.0 ± 0.0 cm
same,Foam Height Time = 0 min,[1]; [9],0.1 ± 0.0 cm
same,Foam Height Time = 30 min,[1]; [9],0.0 ± 0.0 cm
same,antimicrobial activity against Gram-positive bacteria,[2],exhibit antimicrobial activity
